Laboratory results taken from patent US20260184669A1, “LIPID COMPOUND AND COMPOSITION FOR DELIVERY OF ACTIVE SUBSTANCE” (KOREA RESEARCH INSTIUTE OF BIOSCIENCE AND BIOTECHNOLOGY, priority 2022, published 2026).

What was measured:
[1] = Stability of mRNA-LNPs according to storage temperature and duration; assay type: physicochemical; conditions: for Normalized EE % D-1 / Size (nm) D-1 / PDI D-1: day 1; for Normalized EE % D-7 / PDI D-7 / Size (nm) D-7: day 7; for Normalized EE % D-30 / PDI D-30 / Size (nm) D-30: day 30
Procedure: Stability of fLuc mRNA-LNPs produced using various ionizable lipids according to the method of Example 27, was assessed by storing the LNPs at 4° C. and 25° C. At 1, 7, and 30 days post-manufacture, the size, PDI, and encapsulation efficiency (EE) of each mRNA-LNPs samples were measured using the methods described in Experimental Examples 2 and 3.

[2] = Size, polydispersity index and surface charge of mRNA-LNP (Malvern Zetasizer Nano ZS90); assay type: physicochemical; conditions: for PDI / size (nm) Number: mRNA-LNP made with the ionizable lipid at its optimal formulation (Table 2); for size (nm) Number: diluted with PBS to 1 μg/mL mRNA; for Zeta (mV): surface charge of mRNA-LNP made with the ionizable lipid at its optimal formulation (Table 2)
Procedure: Each mRNA-LNPs produced in Example 27 was diluted with PBS to a final mRNA concentration of 1 μg/mL. The size, polydispersity index (PDI), and surface charge of the mRNA-LNPs were then measured using a Malvern Zetasizer Nano ZS90 (Malvern Instruments, UK).
For particles intended for systemic administration, such as via blood vessels, the particle size must be less than 200 nm in order to pass through the endothelial capillaries of the liver. In addition, the size distribution is considered uniform only when the PDI is 0.3 or less, which enables consistent and efficient therapeutic effects (Non-patent document 3 [Danaei, M. et al). Pharmaceutics 2018, 10, 57]).

[3] = mRNA encapsulation efficiency (Quant-IT RiboGreen RNA assay); assay type: physicochemical; conditions: mRNA encapsulation efficiency of mRNA-LNP made with the ionizable lipid; average of two measurements
Procedure: The mRNA encapsulation efficiency (EE, %) of LNPs containing mRNA was measured using the Quant-IT™ RiboGreen® RNA assay kit (Invitrogen, USA).
The diluted samples were added to each well of a 96-well plate. Group A (without Triton X-100) was supplemented with 50 μL of 1×TE buffer, while Group B (with Triton X-100) was supplemented with 50 μL of 1×TE buffer containing 2% Triton-X 100. To release the encapsulated mRNA, the LNPs were treated with Triton-X 100 and incubated at 37° C. for 10 minutes. Subsequently, 100 μL of ribogreen reagent was added to each well. The fluorescence intensities of Group A and Group B were measured using a multi-plate reader (λex 480 nm, λem 520 nm), and mRNA encapsulation efficiency (%) was calculated using Equation 1 below. The encapsulation efficiency for each LNP was determined as the average of two independent measurements.

female C57BL/6 mice = test: Protein expression efficiency of fLuc mRNA-LNPs after intramuscular injection (IVIS whole-body luminescence); assay type: in vivo; conditions: for Total flux 1 hour / Total flux 3 hours / Total flux 6 hours / Total flux 48 hours / Total flux 72 hours / Total flux: fLuc mRNA-LNP, intramuscular injection, luminescence at injection site, mice; for Total flux 1 hour: 1 hour after administration; for Total flux 3 hours: 3 hours after administration; for Total flux 6 hours: 6 hours after administration; for Total flux 48 hours: 48 hours after administration; for Total flux 72 hours: 72 hours after administration; for Total flux: after administration; for Fold increase in total flux at 3 h, MC3: relative to control LNP formulated with MC3; for Fold increase in total flux at 3 h, MC3 / Fold increase in total flux at 3 h, SM-102: 3 hours after intramuscular injection; for Fold increase in total flux at 3 h, SM-102: relative to control LNP formulated with SM-102
Procedure: fLuc mRNA-LNPs formulated using various ionizable lipids were prepared according to the method described in Example 27 and administered in vivo via intramuscular (I. M.) or intravenous (IV.) injection to compare the resulting protein expression efficiency in vivo. As a control, EGFP mRNA-LNPs formulated with commercially available ionizable lipids MC3 or SM-102 were used. All mRNA-LNPs were administered at equal mRNA doses per body weight across different concentration groups (n≥4).
Specifically, the dose of mRNA-LNPs was adjusted to 0.1-0.5 mg/kg of body weight, and the formulation was administered via I.M. or I.V. injection to female C57BL/6 mice (6-10 weeks old, Orient Bio, Korea) Subsequently, […], whole-body luminescence images were acquired using an in vivo imaging system (IVIS Lumina III, PerkinElmer, Walzam, MA, USA). To assess protein expression levels, 200 μL of D-luciferin (15 mg/mL) was administered via intraperitoneal (I.P.) injection 10 minutes prior to imaging. During image acquisition, the animals were anesthetized by inhalation of 3% isoflurane in 97% medical grade oxygen. In addition, the acquired luminescence images were quantitatively analyzed using imaging software (Living Image Software Version 4.4; PerkinElmer, USA).
After intramuscular injection of the fLuc mRNA-LNPs, the luminescence intensity at the injection site was measured over time.
Furthermore, the luminescence intensity at the injection site 3 hours after intramuscular injection was measured, and the relative protein expression efficiency was compared to that of control LNPs formulated with MC3 or SM-102.

[4] = tested on: CCL3 mRNA level in HEK-293T cells; conditions: human
[5] = tested on: CCL2 mRNA level in HEK-293T cells; conditions: human
[6] = tested on: IL-6 mRNA level in HEK-293T cells; conditions: human
[7] = tested on: IL-1β mRNA level in HEK-293T cells; conditions: human

| Compound | Normalized EE % D-1 ([1]; fLuc mRNA-LNP stored at 4° C.) | Size (nm) D-1 ([1]; fLuc mRNA-LNP stored at 4° C.) | Normalized EE % D-7 ([1]; fLuc mRNA-LNP stored at 4° C.) | PDI D-7 ([1]; fLuc mRNA-LNP stored at 4° C.) | Size (nm) D-7 ([1]; fLuc mRNA-LNP stored at 4° C.) | Normalized EE % D-30 ([1]; fLuc mRNA-LNP stored at 4° C.) | PDI D-30 ([1]; fLuc mRNA-LNP stored at 4° C.) | Size (nm) D-30 ([1]; fLuc mRNA-LNP stored at 4° C.) | PDI [2] | size (nm) Number [2] | Zeta (mV) [2] | EE (%) [3] | Total flux 1 hour (female C57BL/6 mice) | Total flux 3 hours (female C57BL/6 mice) | Total flux 6 hours (female C57BL/6 mice) | Total flux 48 hours (female C57BL/6 mice) | Total flux 72 hours (female C57BL/6 mice) | Total flux (female C57BL/6 mice) | Fold increase in total flux at 3 h, MC3 (female C57BL/6 mice) | Fold increase in total flux at 3 h, SM-102 (female C57BL/6 mice) | other results |
| --- | --- | --- | --- | --- | --- | --- | --- | --- | --- | --- | --- | --- | --- | --- | --- | --- | --- | --- | --- | --- | --- |
| CCCCCCCCCCCOC(=O)CCCCCN(CCCCCCCC(=O)OC(CCCCCCCC)CCCCCCCC)CC(O)CCCCNC(=O)c1ccc[nH]1 (stereo not shown) [Compound 16, Heptadecan-9-yl 8-((2-hydroxy-6-(1H-pyrrole-2-carboxamido)hexyl)(6-oxo-6-(undecyloxy)hexyl)amino)octanoate] | 90.9% | 132.2 nm | 91.5% | 0.138 | 137.1 nm | 86.9% | 0.069 | 141.5 nm | 0.101 | 132 nm | −7.87 mV | 91% | 1.11E+07 | 5.26E+07 | 3.64E+07 | 1.71E+06 | 1.40E+06 | 1.61E+07 | 4.26 | 0.47 | Normalized EE % D-1 ([1]; fLuc mRNA-LNP stored at 25° C.): 90.9%; PDI D-1 ([1]; fLuc mRNA-LNP stored at 25° C.): 0.101; Size (nm) D-1 ([1]; fLuc mRNA-LNP stored at 25° C.): 132.2 nm; Normalized EE % D-7 ([1]; fLuc mRNA-LNP stored at 25° C.): 89.1%; PDI D-7 ([1]; fLuc mRNA-LNP stored at 25° C.): 0.059; Size (nm) D-7 ([1]; fLuc mRNA-LNP stored at 25° C.): 137.7 nm; Normalized EE % D-30 ([1]; fLuc mRNA-LNP stored at 25° C.): 84.4%; PDI D-30 ([1]; fLuc mRNA-LNP stored at 25° C.): 0.093; Size (nm) D-30 ([1]; fLuc mRNA-LNP stored at 25° C.): 145.1 nm; CCL3 Average [4]: 2.31; CCL2 Average [5]: 0.79; IL-6 Average [6]: 0.97; IL-1β Average [7]: 0.74 |
| CCCCCCCCCCCOC(=O)CCCCCN(CCCCCCCC(=O)OC(CCCCCCCC)CCCCCCCC)CC(O)CCCCNC(=O)c1ccn(C)c1 (stereo not shown) [Compound 19, Heptadecan-9-yl 8-((2-hydroxy-6-(1-methyl-1H-pyrrole-3-carboxamido)hexyl) (6-oxo-6-(undecyloxy)hexyl)amino)octanoate] | 93.1% | 184.7 nm | 90.6% | 0.122 | 161.2 nm | 87.2% | 0.071 | 177.4 nm | 0.193 | 185 nm | −5.68 mV | 93% | 3.16E+07 | 5.15E+07 | 3.82E+07 | 1.12E+06 | 5.38E+05 | 8.29E+06 | 4.17 | 0.46 | Normalized EE % D-1 ([1]; fLuc mRNA-LNP stored at 25° C.): 93.1%; PDI D-1 ([1]; fLuc mRNA-LNP stored at 25° C.): 0.193; Size (nm) D-1 ([1]; fLuc mRNA-LNP stored at 25° C.): 184.7 nm; Normalized EE % D-7 ([1]; fLuc mRNA-LNP stored at 25° C.): 88.1%; PDI D-7 ([1]; fLuc mRNA-LNP stored at 25° C.): 0.107; Size (nm) D-7 ([1]; fLuc mRNA-LNP stored at 25° C.): 172.5 nm; Normalized EE % D-30 ([1]; fLuc mRNA-LNP stored at 25° C.): 88.3%; PDI D-30 ([1]; fLuc mRNA-LNP stored at 25° C.): 0.159; Size (nm) D-30 ([1]; fLuc mRNA-LNP stored at 25° C.): 171.7 nm; CCL3 Average [4]: 1.04; CCL2 Average [5]: 0.91; IL-6 Average [6]: 0.89; IL-1β Average [7]: 1.07 |
| CCCCCCCCCCCOC(=O)CCCCCN(CCCCCCCC(=O)OC(CCCCCCCC)CCCCCCCC)CC(O)CCCCNC(=O)c1[nH]ccc1O (stereo not shown) [Compound 21, Heptadecan-9-yl 8-((2-hydroxy-6-(3-hydroxy-1H-pyrrole-2-carboxamido)hexyl)(6-oxo-6-(undecyloxy)hexyl)amino)octanoate] |  |  |  |  |  |  |  |  | 0.155 | 112 nm | −4.55 mV | 92% | 1.98E+07 | 1.29E+08 | 9.56E+07 | 3.51E+06 | 1.66E+06 | 1.25E+07 | 10.42 | 1.14 | protein expression compared to the control group (SM-102) (female C57BL/6 mice; 3 hours post intramuscular injection, in words): significantly higher protein expression; CCL3 Average [4]: 1.82; CCL2 Average [5]: 0.63; IL-6 Average [6]: 1.39; IL-1β Average [7]: 1.18 |
| CCCCCCCCCCCOC(=O)CCCCCN(CCCCCCCC(=O)OC(CCCCCCCC)CCCCCCCC)CC(O)CCCCNC(=O)c1cnc(O)n1C (stereo not shown) [Compound 40, Heptadecan-9-yl 8-((2-hydroxy-6-(2-hydroxy-1-methyl-1H-imidazole-5-carboxamido)hexyl)(6-oxo-6-(undecyloxy)hexyl)amino)octanoate] | 92.3% | 106.8 nm | 89.0% | 0.106 | 155.6 nm | 87.5% | 0.044 | 146.2 nm | 0.154 | 107 nm | −1.73 mV | 92% | 7.92E+06 | 1.50E+07 | 6.60E+06 | 1.10E+06 | 8.29E+05 | 6.46E+05 | 1.22 | 0.13 | Normalized EE % D-1 ([1]; fLuc mRNA-LNP stored at 25° C.): 92.3%; PDI D-1 ([1]; fLuc mRNA-LNP stored at 25° C.): 0.154; Size (nm) D-1 ([1]; fLuc mRNA-LNP stored at 25° C.): 106.8 nm; Normalized EE % D-7 ([1]; fLuc mRNA-LNP stored at 25° C.): 90.9%; PDI D-7 ([1]; fLuc mRNA-LNP stored at 25° C.): 0.112; Size (nm) D-7 ([1]; fLuc mRNA-LNP stored at 25° C.): 146.8 nm; Normalized EE % D-30 ([1]; fLuc mRNA-LNP stored at 25° C.): 89.3%; PDI D-30 ([1]; fLuc mRNA-LNP stored at 25° C.): 0.091; Size (nm) D-30 ([1]; fLuc mRNA-LNP stored at 25° C.): 144.8 nm |
